According to patent US7105312B2, “Ca2+/calmodulin-dependent protein kinase IV” (Duke University, priority 2001, dated 2006):

Tests used:
[1] = test system: isolated peripheral neutrophils; assay: Neutrophil respiratory burst and hydrogen peroxide production after stimulation by fMLP or PMA; assay type: cell-based; conditions: isolated peripheral neutrophils from normal mice or humans
Procedure: (§1) In isolated peripheral neutrophils from normal mice or humans, the responses of neutrophils to stimulation by the chemotactic peptide, fMLP, or by the phorbol ester, PMA, was evaluated. […] It was known that the […], p38, is required for the respiratory burst that follows neutrophil activation. […] BM neutrophils have been isolated from normal and Camk4−/− mice and p38 activation in response to PMA has been evaluated.

p38 = p38 activation in neutrophils in response to fMLP or TPA; assay type: cell-based, mice or humans; conditions: in response to either fMLP or TPA
Procedure: as §1

**Q.** Which results are given for COc1ccc(S(=O)(=O)N(CCO)c2ccccc2CN(C)C/C=C/c2ccc(Cl)cc2)cc1 [KN-93]?
**A.** hydrogen peroxide production [1]: completely inhibited; respiratory burst [1]: completely inhibited; p38 activation (p38): prevented
